# Reference: US20250092065A1, “2-(INDAZOL-5-YL)-6-(PIPERIDIN-4-YL)-1,7-NAPHTHYRIDINE DERIVATIVES AND RELATED COMPOUNDS AS MODULATORS FOR SPLICING NUCLEIC ACIDS AND FOR THE TREATMENT OF PROLIFERATIVE DISEASES” (REMIX THERAPEUTICS INC., priority 2022, published 2025)
# Where two headings read alike, the source gives them in different places.
# How the values were obtained:
# SMN2 mRNA = test: RT-qPCR splicing assay, SMN2 mRNA; type: cell-based, human; details: Homo sapiens, canonical junction qPCR panel, Table 4; read-out: SMN2 IC50 (decrease in CJ mRNA levels)
# In short: (§1)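 Canonical and alternative-exon junction isoforms were quantified by RT-qPCR in cell lysates, with ΔCt against a housekeeper (GAPDH/GUSB/PPIA), then ΔΔCt vs DMSO, converted to 2^(−ΔΔCt) and percent response. K562 or A673 cells were exposed for 24 h to 11 concentrations (3-fold, top final 10 uM).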
# K562 cells = test: Cell Titer Glo 2.0 cell viability (toxicity) assay, K562; details: 500 cells/well, 72 hours
# HTT = test: HiBiT protein abundance assay, HTT (K562 HiBiT knock-in); type: cell-based, human; details: HiBiT knock-in K562 cells, 24 hours, top dose 10 μM
# In short: (§2)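 K562 HiBiT knock-in, 24 h, 37 °C, top 10 μM final, 3-fold ×10, DMSO ≤0.25%. Lytic HiBiT luminescence; PC = parental K562, NC = DMSO; 4PL IC50.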
# HTT mRNA = test: RT-qPCR splicing assay, HTT mRNA canonical (CJ) and alternative (AJ) junction; type: cell-based, human; details: Homo sapiens; for AC50: HTT alternative junction mRNA, read-out: HTT AJ (increase in AJ mRNA, AC50)
# In short: as §1
# MYB = test: HiBiT protein abundance assay, MYB (K562 HiBiT knock-in); type: cell-based, human; details: HiBiT knock-in K562 cells, 24 hours, top dose 10 μM
# In short: as §2
# Target C = test: HiBiT protein abundance assay, Target C (K562 HiBiT knock-in); type: cell-based, human; details: HiBiT knock-in K562 cells, 24 hours, top dose 10 μM
# In short: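 K562 HiBiT knock-in cells (10000/well) were treated 24 h at 37° C with a 10-point 3-fold dilution series (top 10 μM final, ≤0.25% DMSO). HiBiT luminescence was read after lytic LgBiT detection. Percent response used unmodified K562 and DMSO-treated knock-in controls, and IC50 came from a four-parameter fit at 50% of untreated.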
# MYB mRNA = test: RT-qPCR splicing assay, MYB mRNA canonical (CJ) and alternative (AJ) junction; type: cell-based, human; details: Homo sapiens; for AC50: MYB alternative junction mRNA, read-out: MYB AJ (increase in AJ mRNA, AC50)
# In short: as §1
# [1] = HTT canonical junction mRNA, RT-qPCR, read-out: HTT CJ (decrease in CJ mRNA levels, IC50)
# [2] = canonical junction qPCR panel, Table 4, read-out: HTT IC50 (decrease in CJ mRNA levels)
# [3] = MYB canonical junction mRNA, RT-qPCR, read-out: MYB CJ (decrease in CJ mRNA levels, IC50)
# [4] = canonical junction qPCR panel, Table 4, read-out: MYB IC50 (decrease in CJ mRNA levels)
Compound,IC50 (SMN2 mRNA) [µM],"Effect of Exemplary Compounds on Cell Viability, K562 (K562 cells)",IC50 (HTT) [µM],AC50 (HTT mRNA; RT-qPCR) [µM],IC50 (HTT mRNA; [1]) [µM],IC50 (HTT mRNA; [2]) [µM],IC50 (MYB) [µM],IC50 (Target C) [µM],AC50 (MYB mRNA; RT-qPCR) [µM],IC50 (MYB mRNA; [3]) [µM],IC50 (MYB mRNA; [4]) [µM]
Cc1nc2cc(O)c(-c3ccc4nc(N5CC[C@@H](NC6CC6)C5)ccc4n3)cc2o1 [Compound 212],< 0.1,B (B represents 100-1000 nM),< 0.1,< 0.1,< 0.1,< 0.1,0.1 to 1,0.1 to 1,0.1 to 1,0.1 to 1,0.1 to 1
Cc1nc2c(C)c(O)c(-c3ccc4nc(N5CC[C@@H](NC(C)(C)C)C5)ccc4n3)cc2o1 [Compound 215],< 0.1,A (A represents <100 nM),< 0.1,< 0.1,< 0.1,< 0.1,< 0.1,< 0.1,< 0.1,< 0.1,< 0.1
Cn1cc2cc(-c3cc4ccc(N5CCC(NC(C)(C)C)C5)nc4cn3)c(O)cc2n1 (stereo not shown) [Compound 218],0.1 to 1,C (C represents 1000-9999 nM),> 10,> 10,> 10,> 10,1 to 10,> 10,1 to 10,> 10,> 10
Cn1cc2cc(-c3ccc4nc(N5CC[C@@H](NC6(C)CC6)C5)ccc4n3)c(O)cc2n1 [Compound 220],< 0.1,A (A represents <100 nM),< 0.1,< 0.1,< 0.1,< 0.1,< 0.1,< 0.1,< 0.1,< 0.1,< 0.1
Cn1cc2cc(-c3ccc4nc(N5CC[C@H](NC6(C)CC6)C5)ccc4n3)c(O)cc2n1 [Compound 221],< 0.1,B (B represents 100-1000 nM),< 0.1,< 0.1,< 0.1,< 0.1,< 0.1,< 0.1,< 0.1,< 0.1,< 0.1
Cn1cc2cc(-c3ccc4nc(N5CC[C@H](NC6(C)CC6)C5)ccc4n3)c(O)c(F)c2n1 [Compound 222],< 0.1,B (B represents 100-1000 nM),< 0.1,< 0.1,< 0.1,< 0.1,< 0.1,< 0.1,< 0.1,< 0.1,< 0.1
Cn1cc2cc(-c3ccc4nc(N5CC[C@@H](NC6(C)CC6)C5)ccc4n3)c(O)c(F)c2n1 [Compound 223],< 0.1,A (A represents <100 nM),< 0.1,< 0.1,< 0.1,< 0.1,< 0.1,< 0.1,< 0.1,< 0.1,< 0.1
Cc1c(O)c(-c2ccc3nc(N4CCC(NC5(C)CC5)C4)ccc3n2)cc2cn(C)nc12 (stereo not shown) [Compound 224],< 0.1,B (B represents 100-1000 nM),< 0.1,< 0.1,< 0.1,< 0.1,< 0.1,< 0.1,< 0.1,< 0.1,< 0.1
Cc1c(O)c(-c2ccc3nc(N4CC[C@@H](NC5(C)CC5)C4)ccc3n2)cc2cn(C)nc12 [Compound 225],< 0.1,B (B represents 100-1000 nM),< 0.1,< 0.1,< 0.1,< 0.1,< 0.1,< 0.1,< 0.1,< 0.1,< 0.1
Cc1c(O)c(-c2ccc3nc(N4CC[C@H](NC5(C)CC5)C4)ccc3n2)cc2cn(C)nc12 [Compound 226],< 0.1,B (B represents 100-1000 nM),< 0.1,< 0.1,< 0.1,< 0.1,< 0.1,< 0.1,0.1 to 1,< 0.1,< 0.1
Cc1nc2cc(O)c(-c3ccc4nc(N5CCC(NC6CCC6)C5)ccc4n3)cc2o1 (stereo not shown) [Compound 228],< 0.1,B (B represents 100-1000 nM),< 0.1,< 0.1,< 0.1,< 0.1,< 0.1,0.1 to 1,< 0.1,0.1 to 1,0.1 to 1
Cc1nc2cc(O)c(-c3ccc4nc(N5CC[C@@H](NC(C)C)C5)ccc4n3)cc2o1 [Compound 232],< 0.1,A (A represents <100 nM),< 0.1,< 0.1,< 0.1,< 0.1,< 0.1,< 0.1,< 0.1,< 0.1,< 0.1
Cc1nc2cc(O)c(-c3ccc4nc(N5CC[C@H](NC(C)C)C5)ccc4n3)cc2o1 [Compound 233],< 0.1,B (B represents 100-1000 nM),< 0.1,< 0.1,< 0.1,< 0.1,< 0.1,< 0.1,< 0.1,< 0.1,< 0.1
Cc1nc2cc(O)c(-c3ccc4nc(N5CCC(N)C5)ccc4n3)cc2o1 (stereo not shown) [Compound 234],< 0.1,A (A represents <100 nM),< 0.1,< 0.1,0.1 to 1,0.1 to 1,< 0.1,< 0.1,< 0.1,0.1 to 1,0.1 to 1
